Laboratory results published in patent publication US6380165B1, “Immunological advanced glycation endproduct crosslink” (The Picower Institute for Medical Research, priority 1997, dated 2002).
Where a SMILES comes first, the peptide text is derived from it. The star is where a group is joined. Cbz = O=C(OCc1ccccc1)*

Tested on: AGE formation
Assay: formation of the ALI crosslink from glucose and Nα-Z-arg-lys, inhibition of forming
Conditions: not given
Source text: This example illustrates a proposed mechanism of the AGE formation (FIG. 2). First, dehydration of the lysine-derived AP (which has been determined to form in 18% yield under these reaction conditions) gives an obligate, AP-dione reactive intermediate. Reversible addition of the guanidine moiety to the dicarbonyl yields the 2-amino-4,5-dihydroxyimidazole adduct, which then undergoes dehydration to deliver the stable cyclic ALI.

Row | Compound | inhibition of crosslink (ALI) formation
1 | N=C(N)NN [aminoguanidine] | inhibited from forming

Tested on: polyclonal anti-AGE antibody “RU”
Assay: anti-AGE antibody-based competitive ELISA to measure AGE content (AGE-BSA as absorbed antigen)
Assay type: binding, rabbit
Conditions: FIG. 1
Source text: For comparison purposes, the reactivity of FFI, CML, AFGP, pentosidine and cyclic pentosidine, and ligands with related epitope structure, such as N^α-Z-arg-lys, N^α-Z-arg-lys-AP, an imidazolium adduct, a pyrimidinium adduct, histidine, and lys-his, were studied. ELISA competition curves for the polyclonal anti-AGE antibody “RU” followed the methods described by Makita et al. (J. Biol. Chem. 267:1992, 1992). Assays employed glucose-derived, AGE-BSA as the absorbed antigen. FFI: 4-furanyl-2-furoyl-1H-imidazole (Ponger et al,. Proc. Natl. Acad Sci. U.S.A. 81:2684, 1984), CML: carboxy-methyllysine (Ahmed et al., J. Biol. Chem. 261:4889, 1986), AFGP: 1-alkyl-2-formyl-3,4-diglycosylpyrrole (Farmar et al., J. Org. Chem. 53:2346, 1988), PY: pyrraline (Njoroge et al., Carbohydrate Res. 167:211, 1987), P: pentosidine (Sell and Monnier, J. Biol. Chem. 264:21597, 1989), CP: cyclic pentosidine (CP) (Al-Abed et al., Bioorg. Med. Chem. Lett. 5:2929, 1995), AL: N^α-Z-arg-lys (AL), ALAP: N^α-Z-arg-lys-AP, H: histidine, LH: lys-his, PA: pyrimidinium adduct (Al-Abed et al., Bioorg. Med. Chem. Lett. 6:1577, 1996), and IA: imldazolium adduct (Brinkmann et al., J. Chem. Soc. Perkin Trans.
This example illustrates the discovery and isolation of the AGE of formula I. The dipeptide N^α-Z-arg-lys was selected as a target, because a close association of the arginine and lysine residues provides a significant proximity effect that promotes crosslink formation. Moreover, a synthetic strategy employing an arg-lys dipeptide was used successfully in the past to isolate a cyclic pentosidine in a high yield (Beisswenger et al., Diabetes 44:824, 1995). N^α-Z-arg-lys (13 mmoles) was incubated together with 10 equivalents of glucose in 0.2 M phosphate buffer (pH 7.4) for five weeks at 37° C. At least 25 distinct reaction products were identified upon fractionation of this mixture by reverse-phase HPLC. Each fraction was isolated, concentrated, and analyzed for its reactivity with anti-AGE antibody by ELISA (Makita et al., J. Biol Chem. 267:1992, 1992). Briefly, HPLC fractions and purified compounds were analyzed by an AGE-specific ELISA following methods described previously (Makita et al., J. Biol. Chem. 267:1992, 1992). This ELISA employed a polyclonal anti-AGE antibody raised by hyperimmunization against a heavily AGE-crosslinked preparation of ribonuclease. Total IgG was prepared by protein-G affinity chromatography and the ribonuclease backbone specificities removed by immunoabsorption. For assaying AGE immunoreactivity, 96-well round bottom microtitre plates (EIA/RIA plate, Costar, Cambridge, Mass.) first were coated with AGE-BSA (3 mg/ml, dissolved in 0.1 M sodium bicarbonate, pH 9.6) by incubation overnight at 4° C. After washing, the unbound sites were blocked with SuperBlock™ following the manufacturer's recommendations (Pierce, Rockford, Ill.). After washing, dilutions of test antigen, together with anti-AGE IgG, were added and the plates incubated at room temperature for 1 hr. The plates then were washed again and incubated with a secondary antibody (alkaline phosphatase-conjugated anti-rabbit IgG) at 37° C. for 1 hr. The unbound antibodies were removed by extensive washing and bound antibodies were detected by incubation with-nitrophenyl phosphate (pNPP) substrate for 30-60 min, and recording the optical density at 405 nm by an ELISA reader (EL309, Bio-Tek Instruments Inc., Burlington, Vt.). Results were expressed as B/B0, calculated as [experimental OD—background OD (i.e. no antibody)]/[total OD (i.e. no competitor)—background OD].

Row | Compound | crossreactivity / reactivity with the RU anti-AGE antibody
2 | N[C@@H](Cc1c[nH]cn1)C(=O)O [H, histidine] | no detectable crossreactivity
3 | 1-alkyl-2-formyl-3,4-diglycosylpyrrole [AFGP] | no detectable crossreactivity
4 | N=C(N)NCCC[C@H](NC(=O)OCc1ccccc1)C(=O)N[C@@H](CCCCN)C(=O)O [AL, N^α-Z-arg-lys] (Cbz-Arg-Lys-OH) | no detectable crossreactivity
5 | cyclic pentosidine [CP] | no detectable crossreactivity
6 | NCCCC[C@H](N)C(=O)N[C@@H](Cc1cnc[nH]1)C(=O)O [LH, lys-his] | no detectable crossreactivity
7 | N[C@@H](CCCCn1c(C=O)ccc1CO)C(=O)O [PY, pyrraline] | no detectable crossreactivity
8 | 4-furanyl-2-furoyl-1H-imidazole [FFI] | no detectable crossreactivity
9 | N^α-Z-arg-lys-AP [ALAP] | no detectable crossreactivity
10 | pentosidine | no detectable crossreactivity

Tested on: not listed separately
Assay: acid lability of the isolated crosslink
Assay type: physicochemical
Conditions: not given

Row | acid stability of the crosslink | Compound
11 | acid-labile | O=C(NC1CCCNC2=NC(=CNCCCCC(C(=O)O)NC1=O)C(CC(O)CO)=N2)OCc1ccccc1 (stereo not drawn) [ALI, Arg-Lys-Imidazole]
